Source: US8716292B2, “Riminophenazines with 2-(heteroaryl)amino substituents and their anti-microbial activity” (priority 2010, dated 2014)
Converted amounts (≈) assume the structure as drawn.

What follows are compounds tested on Mycobacterium tuberculosis H37Rv strains (assay: In vitro assay for antimicrobial susceptibility (microplate Alamar blue MIC)). Conditions: Mycobacterium tuberculosis, H37RV, 7H9, Alamar blue, inhibition ≧90%; read-out: MIC (μg/mL) against H37Rv.
Type: cell-based

Fc1ccc(-n2c3c/c(=N\C4CCOCC4)c(Nc4cnccn4)cc-3nc3ccccc32)cc1 [TBI-1085, 5-(4-Fluorophenyl)-3-(4-tetrahydropyranyl)imino-2-(pyrazin-2-yl)amino-3,5-dihydrophenazine] and O=[N+]([O-])c1cccnc1Nc1cc2nc3ccccc3n(-c3ccc(F)cc3)c-2c/c1=N\C1CCOCC1 [TBI-1088, 5-(4-Fluorophenyl)-3-(4-tetrahydropyranyl)imino-2-(3-nitro-2-pyridyl)amino-3,5-dihydrophenazine] are within 1.5-fold of each other in MIC: 0.038 µg/mL (≈ 0.0815 µM) for the first, 0.028 µg/mL (≈ 0.0548 µM) for the second.

CC(C)/N=c1\cc2n(-c3ccc(Cl)cc3)c3ccccc3nc-2cc1Nc1ncccc1C#N [TBI-1075, 5-(4-Chlorophenyl)-3-(1-methylethyl)imino-2-(3-cyano-2-pyridyl)amino-3,5-dihydrophenazine] was tested, and the MIC was 0.016 µg/mL (≈ 0.0344 µM).

Same assay, conditions: Mycobacterium tuberculosis, H37RV, in vitro, Mycobacterium tuberculosis H37Rv strains; read-out: MIC (μg/mL) against H37Rv

Going from Cc1ccc(-n2c3c/c(=N\C4CCN(C)CC4)c(Nc4cccnc4C)cc-3nc3ccccc32)cc1 [TBI-326, 5-(4-Methylphenyl)-3-(N-methyl-4-piperidyl)imino-2-(2-methyl-3-pyridyl)amino-3,5-dihydrophenazine] to COc1ncccc1Nc1cc2nc3ccccc3n(-c3ccc(C)cc3)c-2c/c1=N\C1CCN(C)CC1 [TBI-313, 5-(4-Methylphenyl)-3-(N-methyl-4-piperidyl)imino-2-(2-methoxy-3-pyridyl)amino-3,5-dihydrophenazine], the MIC falls from 0.1 µg/mL (≈ 0.205 µM) to 0.016 µg/mL (≈ 0.0317 µM) (6.2-fold).

COc1ncccc1Nc1cc2nc3ccccc3n(-c3ccc(C(F)(F)F)cc3)c-2c/c1=N\C(C)C [TBI-699, 5-(4-Trifluoromethylphenyl)-3-(1-methylethyl)imino-2-(2-methoxy-3-pyridyl)amino-3,5-dihydrophenazine] and COc1ncccc1Nc1cc2nc3ccccc3n(-c3ccc(Cl)cc3)c-2c/c1=N\C(C)C [TBI-438, 5-(4-Chlorophenyl)-3-(1-methylethyl)imino-2-(2-methoxy-3-pyridyl)amino-3,5-dihydrophenazine] are within 1.5-fold of each other in MIC: 0.029 µg/mL (≈ 0.0576 µM) for the first, 0.03 µg/mL (≈ 0.0638 µM) for the second.

CO[C@H]1CC[C@H](/N=c2\cc3n(-c4ccc(Cl)cc4)c4ccccc4nc-3cc2Nc2cncc(Br)c2)CC1 [TBI-881, 5-(4-Chlorophenyl)-3-(1′,4′-trans-4-methoxycyclohexyl)imino-2-(5-bromo-3-pyridyl)amino-3,5-dihydrophenazine] and COC1CCC(/N=c2\cc3n(-c4ccc(C)cc4)c4ccccc4nc-3cc2Nc2cccnc2)CC1 (stereo not shown) [TBI-301, 5-(4-Methylphenyl)-3-(4-methoxycyclohexyl)imino-2-(3-pyridyl)amino-3,5-dihydrophenazine] are within 1.5-fold of each other in MIC: 0.052 µg/mL (≈ 0.0883 µM) for the first, 0.06 µg/mL (≈ 0.123 µM) for the second.

Going from COc1ncccc1Nc1cc2nc3ccccc3n(-c3cccc(F)c3)c-2c/c1=N\C(C)C [TBI-523] to COc1ncccc1Nc1cc2nc3ccccc3n(-c3cccc(OC(F)(F)F)c3)c-2c/c1=N\C(C)C [TBI-1038, 5-(3-Trifluoromethoxyphenylethylethyl)imino-2-(2-methoxy-3-pyridyl)amino-3,5-dihydrophenazine], the MIC rises from 0.06 µg/mL (≈ 0.132 µM) to 0.118 µg/mL (≈ 0.227 µM) (2-fold).

Going from COc1ncccc1Nc1cc2nc3ccccc3n(-c3ccccc3)c-2c/c1=N\C1CCC(O)CC1 (stereo not shown) [TBI-087, 5-Phenyl-3-(4-hydroxycyclohexyl)imino-2-(2-methoxy-3-pyridyl)amino-3,5-dihydrophenazine] to COc1ncccc1Nc1cc2nc3ccccc3n(-c3ccccc3)c-2c/c1=N\C1CCC(OC)CC1 (stereo not shown) [TBI-063, 5-Phenyl-3-(4-methoxycyclohexyl)imino-2-(2-methoxy-3-pyridyl)amino-3,5-dihydrophenazine], the MIC falls from 0.466 µg/mL (≈ 0.948 µM) to 0.06 µg/mL (≈ 0.119 µM) (7.8-fold).

First: Cc1ccc(-n2c3c/c(=N\C(C)C)c(Nc4cncc(C)c4)cc-3nc3ccccc32)cc1 [TBI-327, 5-(4-Methylphenyl)-3-(1-methylethyl)imino-2-(5-methyl-3-pyridyl)amino-3,5-dihydrophenazine]
Second: CC(C)/N=c1\cc2n(-c3ccc(Cl)c(Cl)c3)c3ccccc3nc-2cc1Nc1cccnc1 [TBI-336, 5-(3,4-Dichlorophenyl)-3-(1-methylethyl)imino-2-(3-pyridyl)amino-3,5-dihydrophenazine]
The MIC of the first is 2-fold higher: 0.109 µg/mL (≈ 0.251 µM) for the first, 0.055 µg/mL (≈ 0.116 µM) for the second.

Compared with Cc1ccc(-n2c3c/c(=N\C4CCN(CC(C)C)CC4)c(Nc4cccnc4C)cc-3nc3ccccc32)cc1 [TBI-325, 5-(4-Methylphenyl)-3-(N-isobutyl-4-piperidyl)imino-2-(2-methyl-3-pyridyl)amino-3,5-dihydrophenazine], COc1ncccc1Nc1cc2nc3ccccc3n(-c3ccc(C)cc3)c-2c/c1=N\C1CCN(CC(C)C)CC1 [TBI-314, 5-(4-Methylphenyl)-3-(N-isobutyl-4-piperidyl)imino-2-(2-methoxy-3-pyridyl)amino-3,5-dihydrophenazine] is 2.3-fold lower in MIC: 0.056 µg/mL (≈ 0.106 µM) for the first, 0.024 µg/mL (≈ 0.0439 µM) for the second.

Going from COc1ncccc1Nc1cc2nc3cc(F)ccc3n(-c3ccc(Cl)c(Cl)c3)c-2c/c1=N\C1CCC(OC)CC1 (stereo not shown) [TBI-879, 8-Fluoro-5-(3,4-dichlorophenyl)-3-(4-methoxycyclohexyl)imino-2-(2-methoxy-3-pyridyl)amino-3,5-dihydrophenazine] to COc1ncccc1Nc1cc2nc3ccc(F)cc3n(-c3ccc(Cl)cc3)c-2c/c1=N\C1CCC(OC)CC1 (stereo not shown) [TBI-924], the MIC falls from 0.109 µg/mL (≈ 0.184 µM) to 0.06 µg/mL (≈ 0.108 µM) (1.8-fold).

Going from CO[C@H]1CC[C@H](/N=c2\cc3n(-c4ccc(F)cc4)c4ccccc4nc-3cc2Nc2ccc(NC(C)=O)nc2)CC1 [TBI-915, 5-(4-Fluorophenyl)-3-(1′,4′-trans-4-methoxycyclohexyl)imino-2-(6-acetamino-3-pyridyl)amino-3,5-dihydrophenazine] to CC(=O)Nc1ccc(Nc2cc3nc4ccccc4n(-c4ccc(F)cc4)c-3c/c2=N\[C@H]2CC[C@H](O)CC2)cn1 [TBI-917, 5-(4-Fluorophenyl)-3-(1′,4′-trans-4-hydroxycyclohexyl)imino-2-(6-acetamino-3-pyridyl)amino-3,5-dihydrophenazine], the MIC rises from 0.211 µg/mL (≈ 0.383 µM) to 1 µg/mL (≈ 1.86 µM) (4.7-fold).

First: CC(=O)Nc1ccc(Nc2cc3nc4ccccc4n(-c4ccc(F)cc4)c-3c/c2=N\C2CCN(CC(C)C)CC2)cn1 [TBI-913, 5-(4-Fluorophenyl)-3-(N-isobutyl-4-piperidyl)imino-2-(6-acetamino-3-pyridyl)amino-3,5-dihydrophenazine]
Second: COc1ncccc1Nc1cc2nc3ccccc3n(-c3ccc(F)cc3)c-2c/c1=N\C1CCCCC1 [TBI-1009, 5-(4-Fluorophenyl)-3-cyclohexylimino-2-(2-methoxy-3-pyridyl)amino-3,5-dihydrophenazine]
The MIC of the first is 4.8-fold higher: 0.144 µg/mL (≈ 0.249 µM) for the first, 0.03 µg/mL (≈ 0.0608 µM) for the second.

Going from Cc1ncccc1Nc1cc2nc3ccccc3n(-c3cccc(OC(F)(F)F)c3)c-2c/c1=N\C1CCCCC1 [TBI-1034, 5-(3-Trifluoromethoxyphenyl)-3-cyclohexylimino-2-(2-methyl-3-pyridyl)amino-3,5-dihydrophenazine] to Cc1ncccc1Nc1cc2nc3ccccc3n(-c3ccc(C(F)(F)F)cc3)c-2c/c1=N\C1CCC1 [TBI-734, 5-(4-Trifluoromethylphenyl)-3-cyclobutylimino-2-(2-methyl-3-pyridyl)amino-3,5-dihydrophenazine], the MIC falls from 0.059 µg/mL (≈ 0.109 µM) to 0.014 µg/mL (≈ 0.028 µM) (4.2-fold).

COc1ncccc1Nc1cc2nc3ccccc3n(-c3ccc(Br)cc3)c-2c/c1=N\C1CCCCC1 [TBI-517, 5-(4-Bromophenyl)-3-cyclohexylimino-2-(2-methoxy-3-pyridyl)amino-3,5-dihydrophenazine] and COc1ncccc1Nc1cc2nc3ccccc3n(-c3ccccc3)c-2c/c1=N\C1CCC1 [TBI-505, 5-Phenyl-3-cyclobutylimino-2-(2-methoxy-3-pyridyl)amino-3,5-dihydrophenazine] are within 1.5-fold of each other in MIC: 0.029 µg/mL (≈ 0.0523 µM) for the first, 0.043 µg/mL (≈ 0.0961 µM) for the second.

Going from COc1ncccc1Nc1cc2nc3ccccc3n(-c3ccc(C(F)(F)F)cc3)c-2c/c1=N\C1CCN(C)CC1 [TBI-703, 5-(4-Trifluoromethylphenyl)-3-(N-methyl-4-piperidyl)imino-2-(2-methoxy-3-pyridyl)amino-3,5-dihydrophenazine] to COCC(C/N=c1\cc2n(-c3ccc(C(F)(F)F)cc3)c3ccccc3nc-2cc1Nc1cccnc1OC)OC (stereo not shown) [TBI-744], the MIC rises from 0.02 µg/mL (≈ 0.0358 µM) to 0.059 µg/mL (≈ 0.105 µM) (2.9-fold).

Compared with OC1CCC(/N=c2\cc3n(-c4ccc(Br)cc4)c4ccccc4nc-3cc2Nc2cccnc2)CC1 (stereo not shown) [TBI-094, 5-(4-Bromophenyl)-3-(4-hydroxycyclohexyl)imino-2-(3-pyridyl)amino-3,5-dihydrophenazine], COC1CCC(/N=c2\cc3n(-c4ccccc4)c4ccccc4nc-3cc2Nc2cccnc2)CC1 (stereo not shown) [TBI-059, 5-Phenyl-3-(4-methoxycyclohexyl)imino-2-(3-pyridyl)amino-3,5-dihydrophenazine] is 4-fold lower in MIC: 0.5 µg/mL (≈ 0.925 µM) for the first, 0.125 µg/mL (≈ 0.263 µM) for the second.

Going from Cc1ccc(Nc2cc3nc4ccccc4n(-c4ccc(C(F)(F)F)cc4)c-3c/c2=N\CCN2CCOCC2)cn1 [TBI-698, 5-(4-Trifluoromethylphenyl)-3-(2-morpholinoethyl)imino-2-(6-meth-3-pyridyl)amino-3,5-dihydrophenazine] to FC(F)(F)c1ccc(-n2c3c/c(=N\C4CCN(C5CCCC5)CC4)c(Nc4cccnc4)cc-3nc3ccccc32)cc1 [TBI-691, 5-(4-Trifluoromethylphenyl)-3-(N-cyclopentyl-4-piperidyl)imino-2-(3-pyridyl)amino-3,5-dihydrophenazine], the MIC falls from 0.108 µg/mL (≈ 0.193 µM) to 0.06 µg/mL (≈ 0.103 µM) (1.8-fold).

Going from Clc1ccc(-n2c3c/c(=N\C4CC4)c(Nc4cccnc4)cc-3nc3ccccc32)cc1Cl [TBI-343, 5-(3,4-Dichlorophenyl)-3-cyclopropylimino-2-(3-pyridyl)amino-3,5-dihydrophenazine] to COC1CCC(/N=c2\cc3n(-c4ccc(Cl)cc4)c4ccc(F)cc4nc-3cc2Nc2ccc(C)nc2)CC1 (stereo not shown) [TBI-938, 8-Fluoro-5-(4-chlorophenyl)-3-(4-methoxycyclohexyl)imino-2-(6-methyl-3-pyridyl)amino-3,5-dihydrophenazine], the MIC rises from 0.014 µg/mL (≈ 0.0296 µM) to 0.125 µg/mL (≈ 0.231 µM) (8.9-fold).

Going from COCC(COC)/N=c1\cc2n(-c3ccc(F)cc3)c3ccccc3nc-2cc1Nc1cccnc1OC [TBI-1048, 5-(4-Fluorophenyl)-3-(1,3-dimethoxyisopropyl)imino-2-(2-methoxy-3-pyridyl)amino-3,5-dihydrophenazine] to COc1ncccc1Nc1cc2nc3ccccc3n(-c3ccccc3OC(F)(F)F)c-2c/c1=N\C1CCOCC1 [TBI-1045, 5-(2-Trifluoromethoxyphenyl)-3-(4-tetrahydropyranyl)imino-2-(2-methoxy-3-pyridyl)amino-3,5-dihydrophenazine], the MIC rises from 0.226 µg/mL (≈ 0.44 µM) to 0.4 µg/mL (≈ 0.712 µM) (1.8-fold).
